This is an account of results in ChEMBL document CHEMBL1759962, “Anti-inflammatory effect of soyasaponins through suppressing nitric oxide production in LPS-stimulated RAW 264.7 cells by attenuation of NF-κB-mediated nitric oxide synthase expression” (Bioorg Med Chem Lett, 2011).

Structures are written as SMILES. Calls of active or inactive are those of the source. No cut-off for these calls is given here.

For data set [1], the target named is T1, Nitric oxide synthase, inducible (Mus musculus) (UniProt P29477).
T1 sequence (whole entry): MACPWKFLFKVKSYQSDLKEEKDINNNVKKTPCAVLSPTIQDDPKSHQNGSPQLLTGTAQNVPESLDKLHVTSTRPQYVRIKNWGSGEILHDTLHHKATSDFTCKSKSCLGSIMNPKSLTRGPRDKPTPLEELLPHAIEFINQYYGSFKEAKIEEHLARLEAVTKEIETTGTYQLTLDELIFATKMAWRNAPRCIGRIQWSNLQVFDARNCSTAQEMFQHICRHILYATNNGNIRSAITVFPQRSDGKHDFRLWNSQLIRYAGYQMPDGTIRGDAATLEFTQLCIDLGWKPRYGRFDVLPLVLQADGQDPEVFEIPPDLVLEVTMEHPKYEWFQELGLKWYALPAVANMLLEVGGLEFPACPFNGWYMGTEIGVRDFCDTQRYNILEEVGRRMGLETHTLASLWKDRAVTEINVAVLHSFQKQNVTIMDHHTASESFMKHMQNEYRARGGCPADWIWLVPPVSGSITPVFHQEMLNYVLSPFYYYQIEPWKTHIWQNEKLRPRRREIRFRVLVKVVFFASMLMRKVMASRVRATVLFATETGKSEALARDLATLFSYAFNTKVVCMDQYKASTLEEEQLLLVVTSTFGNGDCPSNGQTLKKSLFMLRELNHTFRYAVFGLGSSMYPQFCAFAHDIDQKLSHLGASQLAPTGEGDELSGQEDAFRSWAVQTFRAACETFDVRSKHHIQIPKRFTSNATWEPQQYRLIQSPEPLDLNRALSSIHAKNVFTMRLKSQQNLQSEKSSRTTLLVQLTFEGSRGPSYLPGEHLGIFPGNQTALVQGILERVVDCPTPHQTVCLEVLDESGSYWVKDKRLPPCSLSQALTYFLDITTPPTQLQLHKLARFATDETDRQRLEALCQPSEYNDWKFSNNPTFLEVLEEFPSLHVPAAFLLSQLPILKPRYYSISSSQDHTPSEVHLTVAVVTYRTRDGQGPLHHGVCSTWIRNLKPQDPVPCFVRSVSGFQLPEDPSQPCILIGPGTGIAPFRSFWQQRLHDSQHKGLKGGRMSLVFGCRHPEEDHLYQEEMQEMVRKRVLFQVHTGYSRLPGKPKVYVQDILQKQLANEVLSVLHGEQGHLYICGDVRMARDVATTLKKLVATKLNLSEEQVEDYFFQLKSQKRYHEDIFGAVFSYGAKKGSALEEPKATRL
In words: Inhibition of iNOS activity in LPS-stimulated mouse RAW264.7 cells assessed as conversion of L-[…] arginine to L-[3H] citruline per mg of protein at 100 ug/ml after 24 hrs. It is filed as cell-based.

Data set [2] deals with RAW264.7. In words: Antiinflammatory activity in mouse RAW264.7 cells assessed as inhibition of LPS-induced TNFalpha release by ELISA. It counts as functional, cell-based. In general terms: ELISA stands for enzyme-linked immunosorbent assay.
In data set [3] the test system is RAW264.7. In words: Cytotoxicity against mouse RAW264.7 cells at 25 to 200 ug/ml after 24 hrs by MTT assay. It is filed as cell-based. Conditions: raw264.7, 24 h. (Tetrazolium assays rely on reduction of a dye to a coloured formazan, in cell work by metabolically active cells.)
The test system of data set [4] is RAW264.7. In words: Antiinflammatory activity in mouse RAW264.7 cells assessed as inhibition of LPS-induced IL-1 release by ELISA. It is filed as functional, cell-based.
For data set [5], the target named is T1, Nitric oxide synthase, inducible (Mus musculus). The experiment in a line: Inhibition of iNOS activity in LPS-stimulated mouse RAW264.7 cells assessed as conversion of L-[…] arginine to L-[3H] citruline per mg of protein at 25 ug/ml after 24 hrs. It counts as cell-based.
Data set [6] shares this target. In words: Inhibition of iNOS activity in LPS-stimulated mouse RAW264.7 cells assessed as conversion of L-[…] arginine to L-[3H] citruline per mg of protein at 50 ug/ml after 24 hrs. It is filed as cell-based.
The target is the same in data set [7]. The experiment in a line: Inhibition of iNOS-mediated nitric oxide production in LPS-stimulated mouse RAW264.7 cells at 25 to 200 ug/ml measured after 24 hrs by Griess reaction method. It is filed as cell-based. (The Griess reaction detects nitrite, a stable product of nitric oxide.)
Data set [8] relates to RAW264.7. In words: Inhibition of iNOS mRNA expression in LPS-stimulated mouse RAW264.7 cells at 50 ug/ml after 24 hrs by real time fluorescent quantitative real time PCR relative to negative control. It is filed as functional.
Data set [9] concerns RAW264.7. In words: Inhibition of iNOS mRNA expression in LPS-stimulated mouse RAW264.7 cells at 100 ug/ml after 24 hrs by real time fluorescent quantitative real time PCR relative to negative control. It is filed as functional.
For data set [10], the system named is RAW264.7. The experiment in a line: Inhibition of iNOS mRNA expression in LPS-stimulated mouse RAW264.7 cells at 25 ug/ml after 24 hrs by real time fluorescent quantitative real time PCR relative to negative control. It is filed as functional.
Data set [11] deals with RAW264.7. The experiment in a line: Antiinflammatory activity in mouse RAW264.7 cells assessed as inhibition of LPS-induced IL-6 release by ELISA. It counts as functional, cell-based.
In data set [12] the test system is RAW264.7. The experiment in a line: Inhibition of iNOS mRNA expression in LPS-stimulated mouse RAW264.7 cells at 200 ug/ml after 24 hrs by real time fluorescent quantitative real time PCR relative to negative control. It is filed as functional.
The target of data set [13] is T1, Nitric oxide synthase, inducible (Mus musculus). The experiment in a line: Inhibition of iNOS activity in LPS-stimulated mouse RAW264.7 cells assessed as conversion of L-[…] arginine to L-[3H] citruline per mg of protein at 200 ug/ml after 24 hrs. It counts as cell-based.
Data set [14] shares this target. The experiment in a line: Inhibition of iNOS-mediated nitric oxide production in LPS-stimulated mouse RAW264.7 cells measured after 24 hrs by Griess reaction method. It counts as cell-based.
Data set [15] concerns RAW264.7. The experiment in a line: Inhibition of LPS-induced NF-kappaB activation in mouse RAW264.7 cells expressing pNF-kappaB-LUC at 25 to 200 ug/ml after 24 hrs by luciferase reporter gene assay relative to unstimulated cells. It counts as cell-based.
Data set [16] deals with T1, Nitric oxide synthase, inducible (Mus musculus). In words: Inhibition of iNOS activity in LPS-stimulated mouse RAW264.7 cells assessed as conversion of L-[…] arginine to L-[3H] citruline per mg of protein after 24 hrs. It is filed as cell-based.
Data set [17] has the same target. The experiment in a line: Inhibition of iNOS-mediated nitric oxide production in LPS-stimulated mouse RAW264.7 cells at 10 ug/ml measured after 24 hrs by Griess reaction method. It counts as cell-based.
The target is the same in data set [18]. In words: Inhibition of iNOS activity in LPS-stimulated mouse RAW264.7 cells assessed as conversion of L-[…] arginine to L-[3H] citruline per mg of protein at 10 ug/ml after 24 hrs. It counts as cell-based.

As for `CC1(C)C[C@H]2C3=CC[C@@H]4[C@@]5(C)CC[C@H](O)[C@](C)(CO)[C@@H]5CC[C@@]4(C)[C@]3(C)CC[C@@]2(C)[C@H](O)[C@@H]1O` [SOYASAPOGENOL A], the Activity in data set [1] is 26.9 pmol/min; in the data set on RAW264.7 [3], “Non-toxic”; in data set [5] it was 27.7 pmol/min; in data set [6] it was 27 pmol/min; in data set [13], 27 pmol/min. Also, the inhibition result (in the data set with RAW264.7 [2]; with RAW264.7 [4]; in data set [7]; with RAW264.7 [11]) was “inactive” throughout. Also, the “fold change (FC)” value in the data set with RAW264.7 [8] was 15; in the data set with RAW264.7 [9] it was 15.1; with RAW264.7 [10], 15.1; with RAW264.7 [12] it was 15.3.

In the case of `CC1(C)C[C@@H](O)[C@]2(C)CC[C@]3(C)C(=CC[C@@H]4[C@@]5(C)CC[C@H](O)[C@](C)(CO)[C@@H]5CC[C@]43C)[C@@H]2C1` [SOYASAPOGENOL B], the Activity in data set [1] is 26.6 pmol/min; in the data set on RAW264.7 [3], “Non-toxic”; in data set [5], 27.4 pmol/min; in data set [6] it was 26.5 pmol/min; in data set [13], 27.1 pmol/min. Also, the inhibition entry (in the data set on RAW264.7 [2]; in the data set with RAW264.7 [4]; in data set [7]; with RAW264.7 [11]) was “inactive” throughout. The “fold change (FC)” value in the data set on RAW264.7 [8] turned out to be 14.8; in the data set on RAW264.7 [9], 14.7; in the data set with RAW264.7 [10], 14.7; in the data set with RAW264.7 [12] it was 15.4.

`CC1(C)C[C@H]2C3=CC[C@@H]4[C@@]5(C)CC[C@H](O[C@@H]6O[C@H](C(=O)O)[C@@H](O)[C@H](O)[C@H]6O[C@@H]6O[C@H](CO)[C@@H](O)[C@@H](O)[C@H]6O)[C@](C)(CO)[C@@H]5CC[C@@]4(C)[C@]3(C)CC[C@@]2(C)[C@H](O[C@@H]2OC[C@H](O)[C@@H](O)[C@H]2O[C@@H]2O[C@H](CO)[C@@H](O)[C@@H](O)[C@H]2O)[C@@H]1O` [SOYASAPONIN A2]: the Activity is 14 pmol/min in [1]; “Non-toxic” in the data set with RAW264.7 [3]; 23.6 pmol/min in data set [5]; 19 pmol/min in [6]; 9.3 pmol/min in [13]. The inhibition entry with RAW264.7 [2] was “Active”. The inhibition entry with RAW264.7 [4] and with RAW264.7 [11] was “inactive” in each case. In addition, the inhibition result (in data set [14]; in the data set on RAW264.7 [15]; in data set [16]) was “Dose-dependent effect” in each case. Moreover, the “fold change (FC)” value in the data set on RAW264.7 [8] stood at 10.7; in the data set with RAW264.7 [9] it was 5.7; in the data set with RAW264.7 [10], 11.4; in the data set on RAW264.7 [12] it was 4.4.

In the case of `C[C@@H]1O[C@@H](O[C@H]2[C@H](O[C@H]3[C@H](O[C@H]4CC[C@@]5(C)[C@@H](CC[C@]6(C)[C@@H]5CC=C5[C@@H]7CC(C)(C)C[C@@H](O)[C@]7(C)CC[C@]56C)[C@@]4(C)CO)O[C@H](C(=O)O)[C@@H](O)[C@@H]3O)O[C@H](CO)[C@H](O)[C@@H]2O)[C@H](O)[C@H](O)[C@H]1O` [SOYASAPONIN I], the Activity in data set [1] is 11.7 pmol/min; with RAW264.7 [3], “Non-toxic”; in data set [5] it was 24 pmol/min; in data set [6], 16.6 pmol/min; in data set [13], 9.2 pmol/min. Moreover, the inhibition entry in the data set on RAW264.7 [2] was “Active”. Besides, the inhibition entry with RAW264.7 [4] and in the data set on RAW264.7 [11] was “inactive” throughout. The inhibition entry (in data set [14]; in the data set with RAW264.7 [15]; in data set [16]) was “Dose-dependent effect” throughout. Besides, the “fold change (FC)” value in the data set with RAW264.7 [8] is 8.8; with RAW264.7 [9], 6.8; in the data set on RAW264.7 [10], 11.1; with RAW264.7 [12], 5.6.

Take `CC1(C)C[C@H]2C3=CC[C@@H]4[C@@]5(C)CC[C@H](O[C@@H]6O[C@H](C(=O)O)[C@@H](O)[C@H](O)[C@H]6O[C@@H]6O[C@H](CO)[C@H](O)[C@H](O)[C@H]6O[C@@H]6O[C@H](CO)[C@@H](O)[C@H](O)[C@H]6O)[C@](C)(CO)[C@@H]5CC[C@@]4(C)[C@]3(C)CC[C@@]2(C)[C@H](O[C@@H]2OC[C@H](O)[C@@H](O)[C@H]2O[C@@H]2O[C@H](CO)[C@@H](O)[C@@H](O)[C@H]2O)[C@@H]1O` [SOYASAPONIN A1]: the Activity is 11.4 pmol/min in [1]; “Non-toxic” with RAW264.7 [3]; 22.3 pmol/min in [5]; 18.3 pmol/min in data set [6]; 6.2 pmol/min in data set [13]. Besides, in the data set on RAW264.7 [2], the inhibition entry is “Active”. Besides, the inhibition result in the data set on RAW264.7 [4] and in the data set on RAW264.7 [11] was “inactive” throughout. Moreover, the inhibition result (in [14]; with RAW264.7 [15]; in data set [16]) was “Dose-dependent effect” each time. The “fold change (FC)” value in the data set with RAW264.7 [8] was found to be 11.3; in the data set on RAW264.7 [9], 7.5; in the data set on RAW264.7 [10] it was 11.6; in the data set on RAW264.7 [12], 5.1.

With `N=C(N)NN`, the inhibition result in [17] is “inactive”. In addition, the Activity in [18] is 2.7 pmol/min.
